“And” between values parts separate entries of the source, which are not always exact repeats. Equal values may be shown once. Values belong to the compound of their own block, whether it stands above or below them.
Key:
[1] = tested on: patients suffering from ischemic heart disease; experiment: Patient tolerance in Example 1: adverse events, VAS severity, EKG, vital signs; conditions: for Mean global visual analogue scale (VAS) score for the three main adverse events: total score of 30, ADE 140 μg/kg/min, SC adenosine 70 μg/kg/min
Text: (§1) Primary efficacy end-points were peak and mean diastolic flow velocities (measured as reflecting coronary blood flow values). The secondary end-point was patient tolerance to the procedure.
(§2) VAS scores provide a measure of patient self-assessment of pain intensity/discomfort.

coronary patients [2] = experiment: Safety of the procedure in the Phase II SPECT study: adverse events, visual scale, ST changes on EKG; format: in vivo, human
Protocol: Given the similar adverse effect profile, the 40 μg/kg dipyridamole dose is currently preferred, since it tends to show greater efficacy.
Table 13 gives adverse event severity cumulated scores, evaluated on a visual scale (going from 0 to 10), for the first 27 patients.
At this point in time, no difference in the occurrence of A2 receptor-related side effects, or severity of symptoms, has become clearly apparent as between the combination stressor and Adenoscan. In contrast, the reduction in the occurrence (−43%) and severity (−69%) of chest pain (an A1 receptor-related adverse effect) has already become manifest in the first 27 patients. […] The difference in ST-variation for each patient alone is not significant, but the total difference has achieved significance, with a clear trend in favor of the combination. In the table below (Table 14) ST-changes/baseline are expressed in millimeters.

[3] = tested on: patients suffering from ischemic heart disease; experiment: Transthoracic doppler echocardiography (TTDE): blood flow velocity in the left anterior descending coronary artery (LAD); format: in vivo, human; conditions: for Mean velocity ADE Max / Peak velocity ADE Max: adenosine alone 140 μg/kg/min IV, under stress conditions; for Mean velocity ADE Min / Peak velocity ADE Min: at rest (basal conditions) before adenosine 140 μg/kg/min; for MV-DIP Min / PV-DIP Min: at rest, dipyridamole alone arm
Protocol: In the combined administration, each of the two agents was administered at a dosage lower than its clinically preferred dosage when used as a single agent for myocardial perfusion imaging. Effects were measured using noninvasive transthoracic doppler echocardiography (TTDE).
The protocol was designed as follows.
Forty (40) consecutive patients suffering from ischemic heart disease were enrolled. Each patient served as their own control.
[…] These total doses are between about 4-6% of the lowest single-agent total dose of dipyridamole (i.e., 0.56 mg/kg, infused over a total of 4 minutes).
This dose is half the standard single-agent dosage rate of 140 μg/kg/min.

coronary patients [4] = experiment: Phase II SPECT imaging study: stress scores, 17-segment model; format: in vivo, human; parameters: key: sum of abnormal segment scores, each 0 = normal to 4 = no uptake; conditions: adenosine alone 140 μg/kg/min; Series I, individual patients 1-10; listed as Adenoscan
Protocol: The study, which is ongoing, is a mono-center, single-blind, 2-arm, cross-over trial.
Only those patients in whom an ischemic zone was detected were declared eligible for the second test, and were enrolled in the study if other inclusion criteria were satisfied.
SPECT images were acquired as per the standard approach performed the preceding week.
Randomization of SPECT images, and their analysis by two blinded readers, took place every 10 patients. Anonymous and randomized images were assessed using the standard 17-segment model and the semi-quantitative visual score method on a 5-point scale (from 0 to 4).
The “stress score” is the image of ischemia in one or more of the 17 cardiac segments, as scored from 0 to 4 by the blinded reader using the following scale: normal perfusion=0, mild reduction in counts=1, moderate reduction in counts=2, severe reduction=3, absence of uptake=4). Normally, a zone of ischemia is certain when a score ≧4 is noted. A stress score sums the scores of all abnormal segments.
“Stress score A” is the image score difference between stress conditions between adenosine alone and rest conditions. […] “Delta score” is the difference between “Stress score A” and “Stress score B.” It must not be >2 […]

[5] = tested on: patients suffering from ischemic heart disease; conditions: human, in vivo, iv
Text: as §1, §2

[6] = cited from earlier work
[7] = adenosine alone 140 μg/kg/min, 40 patients
[8] = Adenoscan alone 140 μg/kg/min, n=27
[9] = visual scale 0 to 10, cumulated over first 27 patients
[10] = mean of 5 patients (DIP4 group)
[11] = mean of 5 patients (DIP6 group)
[12] = mean of 30 patients (DIP5 group)
[13] = at rest before adenosine infusion, individual patients (second control experiment)
[14] = at rest before first adenosine infusion, individual patients, listed as ADE1
[15] = at rest before first adenosine infusion, mean of 5 patients
[16] = at rest before second adenosine infusion, individual patients, listed as ADE2
[17] = at rest before second adenosine infusion, mean of 5 patients
[18] = first adenosine infusion 140 μg/kg/min, stress, mean of 5 patients
[19] = first vs second adenosine infusion 140 μg/kg/min, 5 patients
[20] = second adenosine infusion 140 μg/kg/min after 5 minute stabilization, stress, individual patients, listed as ADE2
[21] = second adenosine infusion 140 μg/kg/min, stress, mean of 5 patients
[22] = three minute adenosine infusion 140 μg/kg/min, stress, individual patients (second control experiment)
[23] = dipyridamole alone, bolus 28 μg/kg, individual patient
[24] = dipyridamole alone, bolus 35 μg/kg, individual patients
[25] = dipyridamole alone, bolus 40 μg/kg, individual patients

SMILES: Nc1ncnc2c1ncn2[C@@H]1O[C@H](CO)[C@@H](O)[C@H]1O [ADE, adenosine]
- Mean global visual analogue scale (VAS) score for the three main adverse events ([1]; Group DIP4 (dipyridamole 35 μg/kg in SC), n=5): 5.4
- Mean global visual analogue scale (VAS) score for the three main adverse events ([1]; Group DIP5 (dipyridamole 28 μg/kg in SC), n=30): 5.95
- Mean global visual analogue scale (VAS) score for the three main adverse events ([1]; Group DIP6 (dipyridamole 23 μg/kg in SC), n=5): 8.2
- Symptoms under ADE ([1]; adenosine 140 μg/kg/min, individual patients (second control experiment)): None (2×) and Dyspnea and Flushing (2×)
- Symptoms under ADE: score ([1]; adenosine 140 μg/kg/min, score out of 10, individual patients): 5/10 and 8/10 and 6/10
- Chest pain: # patients reporting events, ADE [1, 7]: 9
- Chest pain: frequency, ADE [1, 7]: 22.5%
- Dyspnea: # patients reporting events, ADE [1, 7]: 20
- Dyspnea: frequency, ADE [1, 7]: 50%
- Flushing: # patients reporting events, ADE [1, 7]: 21
- Flushing: frequency, ADE [1, 7]: 52.5%
- Chest pain: # patients reporting event, ADE (coronary patients [2]; [8]): 14
- Dyspnea: # patients reporting event, ADE (coronary patients [2]; [8]): 11
- Flushing: # patients reporting event, ADE (coronary patients [2]; [8]): 14
- ST-changes/baseline, Adenosine 140 μg/kg/mn (coronary patients [2]; EKG, individual patients with ST variations (6 of 27)): 0.5 millimeters and 1 millimeters (3×) and 0.8 millimeters and 1.2 millimeters
- ST-changes/baseline, Adenosine 140 μg/kg/mn, Total (coronary patients [2]; EKG, total of 6 patients): 5.5 millimeters
- Chest pain: adverse event severity cumulated score (coronary patients [2]; [9]): 60
- Dyspnea: adverse event severity cumulated score (coronary patients [2]; [9]): 40
- Flushing: adverse event severity cumulated score (coronary patients [2]; [9]): 43.5
- Differences in velocity measurements between first and second adenosine infusions ([3]; 140 μg/kg/min twice, 5 patients, P>0.05): No statistically significant differences
- Mean velocity ADE Max ([3]; (DIP5 group)): 61.4 cm/s
- Mean velocity ADE Max ([3]; cumulated, all 40 patients): 63.6 cm/s
- Peak velocity ADE Max ([3]; cumulated, all 40 patients): 85.3 cm/sec
- Mean velocity ADE Max [3, 10]: 60.4 cm/s
- Peak velocity ADE Max [3, 10]: 80 cm/sec
- Mean velocity ADE Max [3, 11]: 80.2 cm/s
- Peak velocity ADE Max [3, 11]: 107 cm/sec
- Peak velocity ADE Max [3, 12]: 82.6 cm/sec
- Mean velocity ADE Min ([3]; cumulated, all 40 patients): 23.7 cm/s
- Peak velocity ADE Min ([3]; cumulated, all 40 patients): 31.2 cm/sec
- Mean velocity ADE Min [3, 10]: 22.2 cm/s
- Peak velocity ADE Min [3, 10]: 28 cm/sec
- Mean velocity ADE Min [3, 11]: 28.2 cm/s
- Peak velocity ADE Min [3, 11]: 37.6 cm/sec
- Mean velocity ADE Min [3, 12]: 23.1 cm/s
- Peak velocity ADE Min [3, 12]: 30.6 cm/sec
- MV-ADE Min [3, 13]: 21 cm/sec and 23 cm/sec (2×) and 25 cm/sec and 20 cm/sec
- PV-ADE Min [3, 13]: 25 cm/sec and 33 cm/sec (2×) and 27 cm/sec and 32 cm/sec
- MV-ADE1 Min [3, 14]: 25 cm/s and 17 cm/s and 22 cm/s and 23 cm/s and 20 cm/s
- PV-ADE1 Min [3, 14]: 34 cm/sec and 23 cm/sec and 30 cm/sec (2×) and 28 cm/sec
- MV-ADE1 Min, Mean [3, 15]: 21.4 cm/s
- PV-ADE1 Min, Mean [3, 15]: 29 cm/sec
- MV-ADE2 Min [3, 16]: 23 cm/s and 16 cm/s and 22 cm/s and 21 cm/s and 20 cm/s
- PV-ADE2 Min [3, 16]: 31 cm/sec and 22 cm/sec and 29 cm/sec and 26 cm/sec and 25 cm/sec
- MV-ADE2 Min, Mean [3, 17]: 20.4 cm/s
- PV-ADE2 Min, Mean [3, 17]: 26.6 cm/sec
- PV-ADE1 Max ([3]; first adenosine infusion 140 μg/kg/min, stress, individual patients (first control experiment), listed as ADE1): 68 cm/sec and 65 cm/sec and 102 cm/sec and 73 cm/sec and 70 cm/sec
- MV-ADE1 Max ([3]; first adenosine infusion 140 μg/kg/min, stress, individual patients, listed as ADE1): 49 cm/s and 48 cm/s and 75 cm/s and 53 cm/s and 50 cm/s
- MV-ADE1 Max, Mean [3, 18]: 55 cm/s
- PV-ADE1 Max, Mean [3, 18]: 75.6 cm/sec
- Max velocity differential MV (ADE1 − ADE2) [3, 19]: (ADE2) = 2.4 cm/sec
- Max velocity differential PV (ADE1 − ADE2) [3, 19]: (ADE2) = 4.8 cm/sec
- MV-ADE2 Max [3, 20]: 45 cm/sec and 48 cm/sec (2×) and 75 cm/sec and 47 cm/sec
- PV-ADE2 Max [3, 20]: 60 cm/sec and 66 cm/sec and 103 cm/sec and 63 cm/sec and 62 cm/sec
- MV-ADE2 Max, Mean [3, 21]: 52.6 cm/s
- PV-ADE2 Max, Mean [3, 21]: 70.8 cm/sec
- MV-ADE Max [3, 22]: 71 cm/s and 67 cm/s and 86 cm/s and 64 cm/s and 61 cm/s
- PV-ADE Max [3, 22]: 88 cm/sec and 92 cm/sec and 112 cm/sec and 84 cm/sec (2×)
- Stress score A (Adenoscan) (coronary patients [4]): 5 (5×) and 4 (2×) and 14 and 13 and 7

- Symptoms during a follow-up of 10 minutes [5]: No symptoms
SMILES: OCCN(CCO)c1nc(N2CCCCC2)c2nc(N(CCO)CCO)nc(N3CCCCC3)c2n1 [DIP, dipyridamole]
- Stability in solvents ([6]; pH>4, long term): unstable in the long term
- Solubility in saline ([6]; saline): poorly soluble
- MV-DIP Min ([3]; 28 μg/kg, individual patient): 19 cm/s
- PV-DIP Min ([3]; 28 μg/kg, individual patient): 23 cm/sec
- MV-DIP Min ([3]; 35 μg/kg, individual patients): 18 cm/s and 22 cm/s
- PV-DIP Min ([3]; 35 μg/kg, individual patients): 21 cm/sec and 30 cm/sec
- MV-DIP Min ([3]; 40 μg/kg, individual patients): 23 cm/s and 24 cm/s
- PV-DIP Min ([3]; 40 μg/kg, individual patients): 33 cm/sec and 34 cm/sec
- Effect on peak and mean diastolic velocities ([3]; dipyridamole alone, IV bolus 28 to 40 μg/kg, 5 patients): did not modify
- MV-DIP Max [3, 23]: 21 cm/s
- PV-DIP Max [3, 23]: 26 cm/sec
- MV-DIP Max [3, 24]: 20 cm/s and 28 cm/s
- PV-DIP Max [3, 24]: 23 cm/sec and 40 cm/sec
- MV-DIP Max [3, 25]: 25 cm/s and 29 cm/s
- PV-DIP Max [3, 25]: 35 cm/sec and 40 cm/sec

Reference: patent publication US8809298B2, “Methods, compositions, unit dosage forms, and kits testing for pharmacologic stress testing with reduced side effects” (Adenobio N.V., priority 2006, dated 2014)
